Measured values reported in ChEMBL document CHEMBL1201862, “PubChem BioAssay data set” (2004).
Activity calls are given as the source filed them.

Legend:
Vero [1] = assay: cells; type: functional; conditions: Chlorocebus sabaeus
Vero [2] = assay: cells; type: functional, cell-based; conditions: Chlorocebus sabaeus
Exodeoxyribonuclease V = molecular target: T1, Exodeoxyribonuclease V (Escherichia coli (strain K12), UniProt P04993+P07648+P08394); assay: E. coli RecBCD inhibitors, dose response, counter-screen for AddAB inhibitor project, absorbance, V66 E. coli, mutant T4 phage (AID 492957); type: functional, cell-based, Escherichia coli str. K-12 substr. MG1655
T1 sequence (P04993 whole entry): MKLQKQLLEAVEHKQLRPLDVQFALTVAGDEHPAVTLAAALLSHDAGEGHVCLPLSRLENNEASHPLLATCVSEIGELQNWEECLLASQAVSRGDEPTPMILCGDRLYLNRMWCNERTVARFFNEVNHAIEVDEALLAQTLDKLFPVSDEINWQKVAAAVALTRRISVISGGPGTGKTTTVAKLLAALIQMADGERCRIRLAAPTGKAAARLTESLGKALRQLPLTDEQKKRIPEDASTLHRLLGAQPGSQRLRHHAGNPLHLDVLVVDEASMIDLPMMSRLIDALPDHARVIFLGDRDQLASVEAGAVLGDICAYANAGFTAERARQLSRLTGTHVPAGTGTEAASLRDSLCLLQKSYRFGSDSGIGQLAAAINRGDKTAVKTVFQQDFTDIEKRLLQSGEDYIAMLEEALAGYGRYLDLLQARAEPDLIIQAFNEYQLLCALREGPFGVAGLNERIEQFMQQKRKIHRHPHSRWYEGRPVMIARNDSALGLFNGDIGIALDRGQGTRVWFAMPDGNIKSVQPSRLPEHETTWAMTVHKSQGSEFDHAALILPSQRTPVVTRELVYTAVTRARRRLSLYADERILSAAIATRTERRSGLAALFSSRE
T1 sequence (P07648 whole entry): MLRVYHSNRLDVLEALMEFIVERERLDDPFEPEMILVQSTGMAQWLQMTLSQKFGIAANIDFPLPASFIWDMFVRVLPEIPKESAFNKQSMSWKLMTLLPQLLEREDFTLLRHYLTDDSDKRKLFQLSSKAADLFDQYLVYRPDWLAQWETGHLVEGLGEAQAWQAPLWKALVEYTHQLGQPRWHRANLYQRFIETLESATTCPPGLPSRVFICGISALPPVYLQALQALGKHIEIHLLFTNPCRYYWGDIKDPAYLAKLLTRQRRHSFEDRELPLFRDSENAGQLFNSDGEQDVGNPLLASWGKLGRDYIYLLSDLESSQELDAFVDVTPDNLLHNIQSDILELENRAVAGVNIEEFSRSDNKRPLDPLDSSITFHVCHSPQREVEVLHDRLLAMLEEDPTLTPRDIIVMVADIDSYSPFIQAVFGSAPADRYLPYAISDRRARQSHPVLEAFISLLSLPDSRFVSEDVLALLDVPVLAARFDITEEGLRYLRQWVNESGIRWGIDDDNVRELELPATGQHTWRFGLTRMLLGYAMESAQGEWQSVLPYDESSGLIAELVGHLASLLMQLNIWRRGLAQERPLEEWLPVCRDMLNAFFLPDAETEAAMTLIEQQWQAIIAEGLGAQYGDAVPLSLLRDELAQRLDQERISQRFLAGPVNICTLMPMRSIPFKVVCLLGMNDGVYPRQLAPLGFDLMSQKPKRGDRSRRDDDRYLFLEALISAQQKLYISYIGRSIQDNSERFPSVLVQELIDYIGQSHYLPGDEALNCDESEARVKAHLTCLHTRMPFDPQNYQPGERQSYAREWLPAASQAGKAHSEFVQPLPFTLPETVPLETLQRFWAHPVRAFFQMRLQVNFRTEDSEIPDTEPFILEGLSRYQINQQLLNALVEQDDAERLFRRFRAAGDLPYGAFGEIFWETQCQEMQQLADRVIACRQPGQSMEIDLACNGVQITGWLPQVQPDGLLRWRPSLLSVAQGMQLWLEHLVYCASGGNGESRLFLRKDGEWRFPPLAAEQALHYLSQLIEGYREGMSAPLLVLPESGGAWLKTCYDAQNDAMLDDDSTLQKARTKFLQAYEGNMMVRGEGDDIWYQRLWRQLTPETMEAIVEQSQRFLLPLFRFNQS
T1 sequence (P08394 whole entry): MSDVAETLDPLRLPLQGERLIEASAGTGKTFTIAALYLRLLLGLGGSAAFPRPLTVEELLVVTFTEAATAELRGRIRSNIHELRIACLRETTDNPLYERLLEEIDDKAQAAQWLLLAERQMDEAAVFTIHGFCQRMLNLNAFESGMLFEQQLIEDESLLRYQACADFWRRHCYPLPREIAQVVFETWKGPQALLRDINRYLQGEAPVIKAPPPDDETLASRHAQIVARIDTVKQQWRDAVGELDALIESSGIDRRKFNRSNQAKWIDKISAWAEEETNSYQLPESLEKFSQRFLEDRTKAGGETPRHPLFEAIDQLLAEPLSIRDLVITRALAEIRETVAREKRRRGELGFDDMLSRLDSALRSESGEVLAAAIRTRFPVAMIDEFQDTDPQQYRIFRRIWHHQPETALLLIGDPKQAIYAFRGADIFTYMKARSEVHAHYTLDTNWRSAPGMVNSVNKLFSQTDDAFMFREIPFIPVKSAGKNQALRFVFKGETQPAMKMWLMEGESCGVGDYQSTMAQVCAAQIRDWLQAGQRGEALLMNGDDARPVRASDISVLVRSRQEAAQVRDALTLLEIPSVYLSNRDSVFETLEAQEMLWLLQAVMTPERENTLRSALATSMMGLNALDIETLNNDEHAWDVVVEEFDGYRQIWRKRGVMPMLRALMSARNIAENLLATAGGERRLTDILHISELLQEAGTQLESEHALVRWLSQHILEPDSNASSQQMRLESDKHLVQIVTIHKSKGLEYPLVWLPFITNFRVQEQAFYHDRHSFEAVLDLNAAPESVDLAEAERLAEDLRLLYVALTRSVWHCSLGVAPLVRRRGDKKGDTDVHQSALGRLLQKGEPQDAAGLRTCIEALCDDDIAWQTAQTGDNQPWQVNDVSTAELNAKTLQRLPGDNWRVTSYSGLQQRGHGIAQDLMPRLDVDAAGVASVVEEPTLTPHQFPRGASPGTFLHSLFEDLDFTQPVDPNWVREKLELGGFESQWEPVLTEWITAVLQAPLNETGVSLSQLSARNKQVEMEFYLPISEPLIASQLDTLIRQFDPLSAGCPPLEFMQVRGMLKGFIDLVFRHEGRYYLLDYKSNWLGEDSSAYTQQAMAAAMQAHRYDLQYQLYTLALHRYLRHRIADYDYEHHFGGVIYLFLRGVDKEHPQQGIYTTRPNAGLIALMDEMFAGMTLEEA

[3] = NIH-3T3 fibroblast cytotoxicity, dose response, cytotoxicity control, cell-based, fluorescence, Alamar Blue, secondary assay (AID 2327); type: functional;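 also: NIH-3T3 mouse fibroblasts cultured with fluconazole at 8 µg/mL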
[4] = C. albicans growth with fluconazole, confirmation, fluorescence, retest (AID 2467); type: functional, cell-based
[5] = Counterscreen for AddAB inhibitors: absorbance-based bacterial cell-based high throughput dose response assay for inhibitors of bacterial viability. [Related pubchem assays (depositor defined):AID435030, AID449728, AID449731, AID488942, AID488955, AID488956]; type: functional
[6] = cytotoxicity in HMLE control line with eGFP shRNA, dose response, counter-screen for HMLE_sh_ECad selective toxicity project, cell-based, HMLE_sh_eGFP, luminescence (AID 463074); type: functional, Homo sapiens;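 also: HMLE human mammary epithelial cells expressing control shRNA against eGFP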
[7] = Luminescence Cell-Based Dose Retest to Confirm Inhibitors of Cancer Stem Cells. [Related pubchem assays (depositor defined):AID2717, AID2721]; type: functional; conditions: Homo sapiens
Cytochrome P450 2C19 = Cytochrome P450 2C19 (Homo sapiens, UniProt P33261); assay: Cytochrome panel assay with activity outcomes. Panel member name: p450-cyp2c19 Compounds with AC50 equal or less than 10 uM are considered active; type: functional
Sequence of Cytochrome P450 2C19 (P33261 whole entry): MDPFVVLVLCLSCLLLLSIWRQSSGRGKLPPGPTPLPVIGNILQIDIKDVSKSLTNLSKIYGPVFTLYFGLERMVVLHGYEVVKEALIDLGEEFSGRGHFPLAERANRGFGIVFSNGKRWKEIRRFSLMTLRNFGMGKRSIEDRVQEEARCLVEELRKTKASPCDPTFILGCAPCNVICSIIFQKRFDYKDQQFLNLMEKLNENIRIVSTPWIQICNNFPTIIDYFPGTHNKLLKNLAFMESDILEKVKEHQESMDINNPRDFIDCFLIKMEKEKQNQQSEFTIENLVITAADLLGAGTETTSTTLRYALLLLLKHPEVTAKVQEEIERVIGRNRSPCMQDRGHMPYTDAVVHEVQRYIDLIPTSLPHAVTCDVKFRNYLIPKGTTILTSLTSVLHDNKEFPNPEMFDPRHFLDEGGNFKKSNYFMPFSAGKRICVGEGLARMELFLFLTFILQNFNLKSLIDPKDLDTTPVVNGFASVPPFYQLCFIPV

Cytochrome P450 3A4 = Cytochrome P450 3A4 (Homo sapiens, UniProt P08684);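 also: CYP3A4 tested as one member of a cytochrome P450 panel screen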
Sequence of Cytochrome P450 3A4 (P08684 whole entry): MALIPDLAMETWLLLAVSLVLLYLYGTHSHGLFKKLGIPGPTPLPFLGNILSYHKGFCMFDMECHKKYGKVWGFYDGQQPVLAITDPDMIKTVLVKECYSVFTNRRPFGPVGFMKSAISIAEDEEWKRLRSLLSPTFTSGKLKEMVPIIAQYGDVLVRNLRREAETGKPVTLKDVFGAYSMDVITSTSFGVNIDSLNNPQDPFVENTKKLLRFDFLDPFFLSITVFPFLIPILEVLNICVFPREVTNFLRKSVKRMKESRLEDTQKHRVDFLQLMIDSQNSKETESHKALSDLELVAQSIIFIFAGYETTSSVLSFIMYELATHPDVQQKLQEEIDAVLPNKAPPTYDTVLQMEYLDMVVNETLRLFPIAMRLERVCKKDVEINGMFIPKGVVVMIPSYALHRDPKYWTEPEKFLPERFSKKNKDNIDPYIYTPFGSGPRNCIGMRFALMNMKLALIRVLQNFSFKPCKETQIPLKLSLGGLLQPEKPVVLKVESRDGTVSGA

Cytochrome P450 2D6 = Cytochrome P450 2D6 (Homo sapiens, UniProt P10635);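 also: CYP2D6 member of a cytochrome P450 panel assay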
Sequence of Cytochrome P450 2D6 (P10635 whole entry): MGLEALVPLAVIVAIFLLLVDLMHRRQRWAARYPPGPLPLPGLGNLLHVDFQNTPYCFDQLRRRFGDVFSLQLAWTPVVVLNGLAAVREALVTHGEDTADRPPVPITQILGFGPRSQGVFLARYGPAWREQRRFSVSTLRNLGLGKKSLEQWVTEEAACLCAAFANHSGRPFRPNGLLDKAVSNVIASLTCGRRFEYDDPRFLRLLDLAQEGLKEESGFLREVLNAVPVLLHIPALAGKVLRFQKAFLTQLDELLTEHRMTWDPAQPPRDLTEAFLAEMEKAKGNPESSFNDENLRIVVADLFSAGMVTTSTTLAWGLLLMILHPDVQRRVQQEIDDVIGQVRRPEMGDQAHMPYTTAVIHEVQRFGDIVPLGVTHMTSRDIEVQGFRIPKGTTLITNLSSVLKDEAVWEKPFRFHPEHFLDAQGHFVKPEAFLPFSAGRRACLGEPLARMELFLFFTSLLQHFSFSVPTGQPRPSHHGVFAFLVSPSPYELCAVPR

[8] = molecular target: T2, Zinc finger protein mex-5 (Caenorhabditis elegans, UniProt Q9XUB2); assay: MEX-5/TCR-2 RNA interaction inhibitors, dose response, biochemical, C. elegans, fluorescence polarization (AID 1960)
T2 sequence (Q9XUB2 whole entry): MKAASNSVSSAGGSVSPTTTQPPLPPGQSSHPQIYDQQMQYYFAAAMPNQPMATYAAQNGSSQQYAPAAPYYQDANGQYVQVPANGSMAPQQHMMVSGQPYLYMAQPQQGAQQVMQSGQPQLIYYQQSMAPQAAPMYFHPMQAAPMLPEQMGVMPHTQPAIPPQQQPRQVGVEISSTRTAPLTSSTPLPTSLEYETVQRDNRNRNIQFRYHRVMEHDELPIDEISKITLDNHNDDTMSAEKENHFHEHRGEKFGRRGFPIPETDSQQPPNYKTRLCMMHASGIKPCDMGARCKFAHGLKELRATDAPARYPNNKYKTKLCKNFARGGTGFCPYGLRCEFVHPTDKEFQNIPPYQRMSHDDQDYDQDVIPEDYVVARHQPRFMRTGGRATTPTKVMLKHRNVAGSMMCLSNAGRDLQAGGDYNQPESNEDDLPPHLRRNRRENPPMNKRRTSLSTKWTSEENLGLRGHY

[9] = molecular target: T3, RNA-binding protein pos-1 (Caenorhabditis elegans, UniProt G5EF15); assay: inhibitors of POS-1/mex-3 RNA binding, dose response, biochemical, fluorescence polarization (AID 1964);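 also: purified POS-1 fused to maltose binding protein made in E. coli; potency of compounds blocking POS-1 binding to fluorescent RNA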
T3 sequence (G5EF15 whole entry): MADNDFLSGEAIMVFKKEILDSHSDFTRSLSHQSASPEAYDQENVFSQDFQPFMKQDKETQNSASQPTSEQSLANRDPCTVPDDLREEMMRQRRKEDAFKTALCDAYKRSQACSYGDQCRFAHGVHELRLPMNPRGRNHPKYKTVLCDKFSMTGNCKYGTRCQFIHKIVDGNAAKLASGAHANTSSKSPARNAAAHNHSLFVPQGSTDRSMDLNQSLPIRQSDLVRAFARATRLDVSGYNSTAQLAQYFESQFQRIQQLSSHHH

[10] = microbe, parasite or virus in culture; type: functional; conditions: Mycobacterium tuberculosis
Jurkat = assay: antigen receptor-induced NF-kB inhibitors, dose response, Jurkat, luciferase reporter, luminescence, B- and T-cell (AID 489004); type: functional, cell-based; conditions: Homo sapiens;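 also: NF-kB luciferase reporter Jurkat cells stimulated with PMA plus ionomycin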
[11] = cytotoxicity in HEK-293T NF-kB-Luc cells, dose response, cytotoxicity control for B/T-cell NF-kB inhibitor project, cell-based, uHTS hits (AID 489019); type: functional;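 also: IC50 reflects cytotoxicity as loss of cell viability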

In the case of CCN1CCN(C(=O)C2CCN(Cc3nc(-c4cccc(Cl)c4)oc3C)CC2)CC1, the CC50 (Vero [1]) is reported as > 25 µM (active) and the IC50 (Vero [2]) is reported as > 25 µM (active).
In the case of O=C(NNC(=O)c1cc(-c2ccncc2)nc2ccccc12)c1ccccc1O, the IC50 (Exodeoxyribonuclease V) is reported as > 119 µM (inactive), the EC50 [3] is reported as > 160 µM (inactive) and the EC50 [4] is reported as 3.18 µM (active). For the same compound, the IC50 [5] was > 119 µM (inactive).
For Cc1csc(NC(=O)c2ccc(COc3ccccc3)o2)n1, the AC50 [6] was 32.2 µM (active) and the AC50 [7] was 2.62 µM (active).
For C[C@@H](O)CC(C)(C)N.Oc1c(Cl)c(Cl)c(Cl)c(Cl)c1Cl, the AC50 (Cytochrome P450 2C19) was “inactive”, the AC50 (Cytochrome P450 3A4) was “inconclusive” and the AC50 (Cytochrome P450 2D6) was “inactive”.
With CC(=O)Oc1cc2cccc(OC(C)=O)c(=O)c2c(OC(C)=O)c1OC(C)=O the IC50 (Exodeoxyribonuclease V) was > 119 µM (inactive), the EC50 [8] was 2.01 µM (active) and the EC50 [9] was 5.6 µM (active). For the same compound, the IC50 [5] was > 119 µM (inactive).
In the case of ClCCn1cnc2c(SCc3ccccc3Cl)ncnc21, the IC50 (Vero [2]) is reported as < 0.05 µM (active).
With COc1ccc(C(=O)C=Cc2ccc(OCc3ccccc3)c(OC)c2)cc1OC the CC50 (Vero [1]) was 20.9 µM (active).
In the case of CC(C)(CN)CN, the AC50 (Cytochrome P450 2D6) is reported as “inconclusive”.
In the case of c1ccc2sc(Sc3ncnc4sccc34)nc2c1, the CC50 [10] is reported as 32.9 µM (active), the IC50 (Jurkat) is reported as 410 nM (active) and the IC50 [11] is reported as > 80 µM (inactive).
